PubChem BioAssay (NCI)
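How tested: cells in 96-well plates exposed to compound for 48 hours at five concentrations. GI50 marks 50% less growth. TGI: concentration producing complete growth inhibition.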

Assays:
Experiment in all cases: inhibition of tumour cell growth, NCI panel, 48 h
[1] = system: SK-MEL-2 melanoma
[2] = system: KM12 colon
[3] = system: RPMI-8226 leukemia
[4] = system: MCF7 breast
[5] = system: LOX IMVI melanoma
[6] = system: MOLT-4 leukemia
[7] = system: CCRF-CEM leukemia
[8] = system: OVCAR-3 ovarian
[9] = system: 786-0 renal
[10] = system: BT-549 breast
[11] = system: HCT-116 colon
[12] = system: HT29 colon
[13] = system: PC-3 prostate
[14] = system: HOP-62 NSCLC
[15] = system: HCC-2998 colon
[16] = system: A549 NSCLC
[17] = system: MDA-N

Structure (SMILES)	TGI [1]	TGI [2]	TGI [3]	TGI [4]	TGI [5]	TGI [6]	TGI [7]	TGI [8]	TGI [9]	TGI [10]	TGI [11]	TGI [12]	TGI [13]	TGI [14]	TGI [15]	TGI [16]	TGI [17]	GI50 [7]	GI50 [11]	GI50 [14]
CC[N+]1(C)CCC(O)(c2ccccc2)C(C(=O)c2ccccc2)C1 (stereo unspecified)	37.7 µM	39.3 µM	6.37 µM	9.6 µM	36.8 µM	11.3 µM	6.89 µM	45.7 µM	18.8 µM	27.7 µM	34.7 µM	31.8 µM	33.9 µM	48.2 µM	49.8 µM	27.9 µM	–	–	–	–
COC(=O)n1c(=O)n(-c2ccccc2)c(=O)n1C(=O)Nc1ccccc1	> 100 µM	> 100 µM	> 100 µM	–	> 100 µM	> 100 µM	> 100 µM	> 100 µM	> 100 µM	> 100 µM	> 100 µM	> 100 µM	> 100 µM	> 100 µM	> 100 µM	> 100 µM	–	–	–	–
COc1cc2c(cc1OC)C1CCc3ccccc3CN1CC2 (stereo unspecified)	> 100 µM	> 100 µM	–	> 100 µM	> 100 µM	> 100 µM	> 100 µM	> 100 µM	> 100 µM	–	> 100 µM	> 100 µM	> 100 µM	> 100 µM	> 100 µM	> 100 µM	> 100 µM	–	–	–
CN(C)c1nc(=NCc2cccs2)ss1	–	> 10 µM	> 10 µM	> 10 µM	> 10 µM	> 6.29 µM	1.83 µM	> 10 µM	> 10 µM	–	> 10 µM	> 10 µM	> 10 µM	> 10 µM	> 10 µM	> 10 µM	> 10 µM	–	–	–
Cc1nc(-c2cc3c(ccc4ccccc43)oc2=O)cc2c1c(=O)oc1ccc3ccccc3c12	> 100 µM	> 100 µM	–	> 100 µM	> 100 µM	> 100 µM	> 100 µM	> 100 µM	> 100 µM	> 100 µM	> 100 µM	> 100 µM	> 100 µM	> 100 µM	> 100 µM	> 100 µM	–	–	–	–
Cc1cc(N(CCCCl)CCCCl)ccc1C=Nc1cccc(Cl)c1	36.5 µM	26.3 µM	0.231 µM	49.9 µM	26.7 µM	21.2 µM	–	33.5 µM	43.2 µM	–	> 100 µM	27.7 µM	25.9 µM	–	–	24.7 µM	–	–	–	–
COC(=O)c1c2c(c(-c3ccccc3)c3c1-c1nc(Cl)ccc1CC3)CCc1ccc(Cl)nc1-2	–	> 100 µM	> 100 µM	–	> 100 µM	> 100 µM	> 100 µM	> 100 µM	> 100 µM	–	> 100 µM	> 100 µM	–	> 100 µM	> 100 µM	> 100 µM	–	–	–	–
CCOC(=O)CCC(C(=O)OCC)n1nnc2ccc(Nc3c(C)[n+]([O-])c4cc(Cl)ccc4[n+]3[O-])cc21 (stereo unspecified)	57 µM	86.7 µM	47 µM	34.3 µM	35.7 µM	> 100 µM	> 100 µM	34.4 µM	> 100 µM	78.1 µM	> 100 µM	68.9 µM	> 100 µM	> 100 µM	49.7 µM	> 100 µM	–	–	–	–
c1ccc(N=c2sc3ccccc3sc2=Nc2ccccc2)cc1	3.45 µM	4.25 µM	> 100 µM	–	3.43 µM	> 100 µM	> 100 µM	–	3.14 µM	–	3.18 µM	3.86 µM	25.5 µM	15.3 µM	3.24 µM	9.1 µM	3.05 µM	–	–	–
COc1ccc(/C=C2\SC(c3ccc(OC)cc3)N(NC(=O)Cc3ccccc3)C2=O)cc1 (stereo unspecified)	> 100 µM	> 100 µM	> 100 µM	–	> 100 µM	> 100 µM	> 100 µM	–	> 100 µM	–	> 100 µM	> 100 µM	–	> 100 µM	–	> 100 µM	–	–	–	–
CSCCCNC(=O)c1csc(-c2csc(CCN)n2)n1	–	> 100 µM	> 100 µM	> 100 µM	> 100 µM	> 100 µM	> 100 µM	> 100 µM	> 100 µM	> 100 µM	> 100 µM	> 100 µM	> 100 µM	> 100 µM	> 100 µM	> 100 µM	–	–	–	–
COCOCC1CCCN1CN1CCC[C@H]1COCOC (stereo partly specified)	> 100 µM	> 100 µM	99.5 µM	> 100 µM	–	> 100 µM	> 100 µM	> 100 µM	> 100 µM	–	> 100 µM	> 100 µM	> 100 µM	> 100 µM	–	> 100 µM	> 100 µM	–	–	–
CCCc1c(C(=O)OCC)[nH]c(-c2ccc(-c3[nH]c(C(=O)OCC)c(CCC)c3C(=O)OCC)o2)c1C(=O)OCC	> 100 µM	> 100 µM	> 100 µM	–	> 100 µM	> 100 µM	> 100 µM	> 100 µM	> 100 µM	–	> 100 µM	> 100 µM	–	–	> 100 µM	> 100 µM	–	–	–	–
Cc1ccc2c(c1)SC(c1cc3c(cc1Br)OCO3)S2 (stereo unspecified)	> 31.6 µM	> 31.6 µM	> 31.6 µM	–	> 31.6 µM	> 31.6 µM	> 31.6 µM	> 31.6 µM	> 31.6 µM	–	> 31.6 µM	> 31.6 µM	–	> 31.6 µM	> 31.6 µM	> 31.6 µM	–	–	–	–
CCOC(=O)C(=Cc1cc(OC)ccc1OC)C(=O)OCC	18.1 µM	19.9 µM	10.9 µM	–	19.5 µM	37.9 µM	–	22.5 µM	14.1 µM	–	27.5 µM	17 µM	–	23.6 µM	34.8 µM	26.9 µM	–	–	–	–
Cc1cc(C)n(-c2nc3ccccc3c(=O)n2-c2ccccc2)n1	> 100 µM	–	–	> 100 µM	> 100 µM	> 100 µM	> 100 µM	> 100 µM	> 100 µM	–	> 100 µM	> 100 µM	> 100 µM	> 100 µM	> 100 µM	> 100 µM	> 100 µM	–	–	–
CC1(Br)C(=O)NC(=O)N(C2CC(N=[N+]=[N-])C(CO)O2)C1N=[N+]=[N-] (stereo unspecified)	> 100 µM	> 100 µM	> 100 µM	–	> 100 µM	> 100 µM	> 100 µM	> 100 µM	> 100 µM	–	–	> 100 µM	–	> 100 µM	> 100 µM	> 100 µM	–	–	–	–
Cc1nc(-c2nc(C)c(C(=O)NN(C)C)s2)sc1C(=O)NN(C)C	> 100 µM	> 100 µM	91.2 µM	–	48.9 µM	> 100 µM	> 100 µM	> 100 µM	> 100 µM	–	–	> 100 µM	–	> 100 µM	> 100 µM	–	–	–	–	–
CCOC(=O)[C@H]1Nc2ccc(Cl)cc2[C@H]2OCC[C@@H]12	> 100 µM	> 100 µM	–	–	> 100 µM	> 100 µM	> 100 µM	> 100 µM	> 100 µM	–	> 100 µM	> 100 µM	–	> 100 µM	> 100 µM	> 100 µM	–	–	–	–
COc1ccc(OC)c(C#Cc2ccc(OC)c(C(=O)NCCc3ccc(F)cc3)c2)c1	> 100 µM	> 100 µM	> 100 µM	> 100 µM	> 100 µM	> 100 µM	> 100 µM	–	> 100 µM	> 100 µM	> 100 µM	> 100 µM	> 100 µM	> 100 µM	7.73 µM	> 100 µM	–	4.72 µM	4.7 µM	4.94 µM
CC(C)c1c(O[Si](C(C)C)(C(C)C)C(C)C)c2c3c(ccc4c3c1OC4(C)C)C(C)CC2 (stereo unspecified)	> 100 µM	> 100 µM	> 100 µM	> 100 µM	> 100 µM	> 100 µM	> 100 µM	> 100 µM	> 100 µM	–	> 100 µM	> 100 µM	> 100 µM	> 100 µM	–	> 100 µM	> 100 µM	–	–	–
C/C1=C\[C@H](C)C[C@H](C)OC(=O)C[C@H](c2ccc(O)cc2)NC(=O)[C@H](Cc2ccc(O)c(Br)c2)N(C)C(=O)[C@H](C)NC(=O)[C@@H](C)C1	> 25 µM	> 25 µM	> 25 µM	> 25 µM	> 25 µM	> 25 µM	> 25 µM	> 25 µM	> 25 µM	–	> 25 µM	> 25 µM	> 25 µM	> 25 µM	–	> 25 µM	> 25 µM	–	–	–
Cc1nc2ccccc2c(=O)n1NC(=S)Nc1cccc(Cl)c1	> 100 µM	> 100 µM	> 100 µM	–	> 100 µM	> 100 µM	> 100 µM	–	> 100 µM	–	> 100 µM	> 100 µM	–	> 100 µM	–	> 100 µM	–	–	–	–
NCCCCN(CCCN)Cc1ccccc1	> 100 µM	> 100 µM	> 100 µM	> 100 µM	–	> 100 µM	> 100 µM	> 100 µM	> 100 µM	> 100 µM	> 100 µM	> 100 µM	> 100 µM	> 100 µM	> 100 µM	> 100 µM	–	–	–	–
CC(C)Oc1ccc(CNC2=NCCO2)c2ccccc12	–	34 µM	28.3 µM	29.6 µM	–	19.8 µM	30.4 µM	–	26.4 µM	–	27 µM	16.3 µM	–	30.8 µM	25.3 µM	30.8 µM	–	–	–	–
